Like-named read-outs stand apart in the source and are kept apart here.

Test [1] has as its system MV4;11 cells. As to the kind of experiment: Cell viability assay (CellTiter-Glo) in MV4;11 cells, alone or with gilteritinib. The settings on record: Homo sapiens, MV4-11, 72 h, MV4;11 cells, three days, CellTiter-Glo, read-out: MV4. Format: cell-based. A general note: ATP-based viability assays read luminescence as a measure of living cells.
The subject of test [2] is MOLM-13 cells. The test is described as follows: Cell viability assay (CellTiter-Glo) in MOLM-13 cells, alone or with gilteritinib. The class given is cell-based. The settings on record: Homo sapiens, MOLM-13, 72 h, MOLM-13 cells, three days, CellTiter-Glo.
Where [3] appears, read: compound alone (without gilteritinib), 11 IC50.
Setting [4] is: with gilteritinib 10 nM, 11 IC50 gilteritinib.
The mark [5] stands for this setting: compound alone (without gilteritinib), read-out: MOLM-13 IC50.
The mark [6] stands for this setting: with gilteritinib 20 nM, read-out: MOLM-13 IC50 gilteritinib.

Consider `O=C1CCC(N2C(=O)c3ccc(NCCCCCCNc4ncc(-c5cnc6ccccc6n5)s4)cc3C2=O)C(=O)N1` (centres unmarked) [GS-385, 2-(2,6-Dioxopiperidin-3-yl)-5-((6-((5-(quinoxalin-2-yl)thiazol-2-yl)amino)hexyl)amino)isoindoline-1,3-dione], for which the IC50 in test [1] (setting [3]) is 100 to 1000 nM; in test [1] (setting [4]) it was 10 to 100 nM; in test [2] (setting [5]) it was 100 to 1000 nM; in test [2] (setting [6]) it was 10 to 100 nM.

As to `O=C1CCC(N2C(=O)c3ccc(NCCCCCCc4ncc(-c5cnc6ccccc6n5)s4)cc3C2=O)C(=O)N1` (centres unmarked) [GS-386, 2-(2,6-Dioxopiperidin-3-yl)-5-((6-(5-(quinoxalin-2-yl)thiazol-2-yl)hexyl)amino)isoindoline-1,3-dione], the IC50 in test [1] (setting [3]) was 100 to 1000 nM; in test [1] (setting [4]) it was 10 to 100 nM; in test [2] (setting [5]) it was 10 to 100 nM; in test [2] (setting [6]), < 10 nM.

Regarding `COc1ccc2ncc(-c3cnn(CCCCCCNc4ccc5c(c4)C(=O)N(C4CCC(=O)NC4=O)C5=O)c3)nc2c1` (centres unmarked) [GS-387, 2-(2,6-Dioxopiperidin-3-yl)-5-((6-(4-(7-methoxyquinoxalin-2-yl)-1H-pyrazol-1-yl)hexyl)amino)isoindoline-1,3-dione], the IC50 in test [1] (setting [3]) is 100 to 1000 nM; in test [1] (setting [4]), 10 to 100 nM; in test [2] (setting [5]) it was 100 to 1000 nM; in test [2] (setting [6]) it was < 10 nM.

With `CN1CCC(c2cccc3ncc(-c4cnn(CCCCCCNc5ccc6c(c5)C(=O)N(C5CCC(=O)NC5=O)C6=O)c4)nc23)CC1` (centres unmarked) [GS-388, 2-(2,6-Dioxopiperidin-3-yl)-5-((6-(4-(8-(1-methylpiperidin-4-yl)quinoxalin-2-yl)-1H-pyrazol-1-yl)hexyl)amino)isoindoline-1,3-dione], the IC50 in test [1] (setting [3]), in test [1] (setting [4]), in test [2] (setting [5]) and in test [2] (setting [6]) was > 1000 nM each time.

For the molecule `O=C1CCC(N2C(=O)c3ccc(NCCCCCCn4cc(-c5cnc6cccc(C7CC7)c6n5)cn4)cc3C2=O)C(=O)N1` (centres unmarked) [GS-389, 5-((6-(4-(8-Cyclopropylquinoxalin-2-yl)-1H-pyrazol-1-yl)hexyl)amino)-2-(2,6-dioxopiperidin-3-yl)isoindoline-1,3-dione], the IC50 in test [1] (setting [3]) is 100 to 1000 nM; in test [1] (setting [4]), 10 to 100 nM; in test [2] (setting [5]), 100 to 1000 nM; in test [2] (setting [6]), 10 to 100 nM.

`O=C1CCC(N2C(=O)c3ccc(NCCCCCNc4ncc(-c5cnc6ccccc6n5)s4)cc3C2=O)C(=O)N1` (centres unmarked) [GS-390, 2-(2,6-Dioxopiperidin-3-yl)-5-((5-((5-(quinoxalin-2-yl)thiazol-2-yl)amino)pentyl)amino)isoindoline-1,3-dione]: the IC50 in test [1] (setting [3]) is > 1000 nM; in test [1] (setting [4]), 100 to 1000 nM; in test [2] (setting [5]) it was > 1000 nM; in test [2] (setting [6]) it was 100 to 1000 nM.

`COc1cccc2ncc(-c3cnn(CCCCCCNc4ccc5c(c4)C(=O)N(C4CCC(=O)NC4=O)C5=O)c3)nc12` (centres unmarked) [GS-391, 2-(2,6-Dioxopiperidin-3-yl)-5-((6-(4-(8-methoxyquinoxalin-2-yl)-1H-pyrazol-1-yl)hexyl)amino)isoindoline-1,3-dione]: the IC50 in test [1] (setting [3]) was > 1000 nM; in test [1] (setting [4]) it was > 1000 nM; in test [2] (setting [5]) it was > 1000 nM; in test [2] (setting [6]), 100 to 1000 nM.

For the molecule `O=C1CCC(N2C(=O)c3ccc(NCC4CC(n5cc(-c6cnc7cccc(N8CCOCC8)c7n6)cn5)C4)cc3C2=O)C(=O)N1` (centres unmarked) [GS-392, 2-(2,6-Dioxopiperidin-3-yl)-5-(((3-(4-(8-morpholinoquinoxalin-2-yl)-1H-pyrazol-1-yl)cyclobutyl)methyl)amino)isoindoline-1,3-dione], the IC50 is > 1000 nM in test [1] (setting [3]), 100 to 1000 nM in test [1] (setting [4]), > 1000 nM in test [2] (setting [5]) and > 1000 nM in test [2] (setting [6]).

Turning to `O=C1CCC(N2C(=O)c3ccc(NCCCCCCn4cc(-c5cnc6cccc(C7CCNCC7)c6n5)cn4)cc3C2=O)C(=O)N1` (centres unmarked) [GS-393, 2-(2,6-Dioxopiperidin-3-yl)-5-((6-(4-(8-(piperidin-4-yl)quinoxalin-2-yl)-1H-pyrazol-1-yl)hexyl)amino)isoindoline-1,3-dione], the IC50 in test [1] (setting [3]), in test [1] (setting [4]), in test [2] (setting [5]) and in test [2] (setting [6]) was > 1000 nM throughout.

Turning to `O=C1CCC(N2C(=O)c3ccc(NCC4CC(n5cc(-c6cnc7cccc(F)c7n6)cn5)C4)cc3C2=O)C(=O)N1` (centres unmarked) [GS-394, 2-(2,6-Dioxopiperidin-3-yl)-5-(((3-(4-(8-fluoroquinoxalin-2-yl)-1H-pyrazol-1-yl)cyclobutyl)methyl)amino)isoindoline-1,3-dione], the IC50 was 100 to 1000 nM in test [1] (setting [3]), 10 to 100 nM in test [1] (setting [4]), > 1000 nM in test [2] (setting [5]) and 10 to 100 nM in test [2] (setting [6]).

Take `CN1C[C@H]2C[C@@H]1CN2c1ccc2ncc(-c3cnn(C4CC(CCCNc5ccc6c(c5)C(=O)N(C5CCC(=O)NC5=O)C6=O)C4)c3)nc2c1` (stereo partly drawn) [GS-395, 2-(2,6-Dioxopiperidin-3-yl)-5-((3-(3-(4-(7-((1R,4R)-5-methyl-2,5-diazabicyclo[2.2.1]heptan-2-yl)quinoxalin-2-yl)-1H-pyrazol-1-yl)cyclobutyl)propyl)amino)isoindoline-1,3-dione]: the IC50 in test [1] (setting [3]) was > 1000 nM; in test [1] (setting [4]), 10 to 100 nM; in test [2] (setting [5]), > 1000 nM; in test [2] (setting [6]) it was 10 to 100 nM.

Consider `O=C1CCC(N2C(=O)c3ccc(NCCC[C@H]4C[C@H](n5cc(-c6cnc7cc(N8CCOCC8)ccc7n6)cn5)C4)cc3C2=O)C(=O)N1` (stereo partly drawn) [GS-396, 2-(2,6-Dioxopiperidin-3-yl)-5-((3-(trans-3-(4-(6-morpholinoquinoxalin-2-yl)-1H-pyrazol-1-yl)cyclobutyl)propyl)amino)isoindoline-1,3-dione], for which the IC50 in test [1] (setting [3]) was 10 to 100 nM; in test [1] (setting [4]), < 10 nM; in test [2] (setting [5]), 10 to 100 nM; in test [2] (setting [6]), < 10 nM.

For `CN1CCN(c2ccc3nc(-c4cnn([C@H]5C[C@H](CCCNc6ccc7c(c6)C(=O)N(C6CCC(=O)NC6=O)C7=O)C5)c4)cnc3c2)CC1` (stereo partly drawn) [GS-397, 2-(2,6-Dioxopiperidin-3-yl)-5-((3-(trans-3-(4-(6-(4-methylpiperazin-1-yl)quinoxalin-2-yl)-1H-pyrazol-1-yl)cyclobutyl)propyl)amino)isoindoline-1,3-dione], the IC50 in test [1] (setting [3]) is 10 to 100 nM; in test [1] (setting [4]) it was < 10 nM; in test [2] (setting [5]) it was 10 to 100 nM; in test [2] (setting [6]), < 10 nM.

For `CN1CCN(c2cccc3ncc(-c4cnn(C5CC(CNc6ccc7c(c6)C(=O)N(C6CCC(=O)NC6=O)C7=O)C5)c4)nc23)CC1` (centres unmarked) [GS-398, 2-(2,6-Dioxopiperidin-3-yl)-5-(((3-(4-(8-(4-methylpiperazin-1-yl)quinoxalin-2-yl)-1H-pyrazol-1-yl)cyclobutyl)methyl)amino)isoindoline-1,3-dione], the IC50 in test [1] (setting [3]), in test [1] (setting [4]), in test [2] (setting [5]) and in test [2] (setting [6]) was > 1000 nM throughout.

Turning to `Cc1nn([C@H]2C[C@H](CCCNc3ccc4c(c3)C(=O)N(C3CCC(=O)NC3=O)C4=O)C2)cc1-c1cnc2ccc(N3CCOCC3)cc2n1` (some centres unmarked) [GS-399], the IC50 in test [1] (setting [3]), in test [1] (setting [4]), in test [2] (setting [5]) and in test [2] (setting [6]) was < 10 nM throughout.

On to `O=C1CCC(N2C(=O)c3ccc(NCCC[C@H]4C[C@H](n5cc(-c6cnc7ccccc7n6)c(C(F)(F)F)n5)C4)cc3C2=O)C(=O)N1` (stereo partly drawn) [GS-400, 2-(2,6-Dioxopiperidin-3-yl)-5-((3-(trans-3-(4-(quinoxalin-2-yl)-3-(trifluoromethyl)-1H-pyrazol-1-yl)cyclobutyl)propyl)amino)isoindoline-1,3-dione], for which the IC50 in test [1] (setting [3]) was 10 to 100 nM; in test [1] (setting [4]) it was 10 to 100 nM; in test [2] (setting [5]), 100 to 1000 nM; in test [2] (setting [6]) it was 10 to 100 nM.

As to `O=C1CCC(N2C(=O)c3ccc(NCCC[C@H]4C[C@H](n5cc(-c6cnc7cc(N8CCNCC8)ccc7n6)cn5)C4)cc3C2=O)C(=O)N1` (stereo partly drawn) [GS-401, 2-(2,6-Dioxopiperidin-3-yl)-5-((3-(trans-3-(4-(6-(piperazin-1-yl)quinoxalin-2-yl)-1H-pyrazol-1-yl)cyclobutyl)propyl)amino)isoindoline-1,3-dione], the IC50 was 10 to 100 nM in test [1] (setting [3]), < 10 nM in test [1] (setting [4]), 10 to 100 nM in test [2] (setting [5]) and < 10 nM in test [2] (setting [6]).

With `O=C1CCC(N2C(=O)c3ccc(NCCC[C@H]4C[C@@H](n5cc(-c6cnc7cc(N8CCOCC8)ccc7n6)cn5)C4)cc3C2=O)C(=O)N1` (stereo partly drawn) [GS-402, 2-(2,6-Dioxopiperidin-3-yl)-5-((3-(cis-3-(4-(6-morpholinoquinoxalin-2-yl)-1H-pyrazol-1-yl)cyclobutyl)propyl)amino)isoindoline-1,3-dione], the IC50 in test [1] (setting [3]) is 100 to 1000 nM; in test [1] (setting [4]), 10 to 100 nM; in test [2] (setting [5]), > 1000 nM; in test [2] (setting [6]), 10 to 100 nM.

Take `O=C1CCC(N2C(=O)c3ccc(NCCC[C@H]4C[C@H](n5cc(-c6cnc7c(N8CCOCC8)cccc7n6)cn5)C4)cc3C2=O)C(=O)N1` (stereo partly drawn) [GS-403, 2-(2,6-Dioxopiperidin-3-yl)-5-((3-(trans-3-(4-(5-morpholinoquinoxalin-2-yl)-1H-pyrazol-1-yl)cyclobutyl)propyl)amino)isoindoline-1,3-dione]: the IC50 in test [1] (setting [3]) was in the range of 100 to 1000 nM; in test [1] (setting [4]), 10 to 100 nM; in test [2] (setting [5]), 100 to 1000 nM; in test [2] (setting [6]) it was 10 to 100 nM.

In the case of `CN1CCN(c2cccc3nc(-c4cnn([C@H]5C[C@H](CCCNc6ccc7c(c6)C(=O)N(C6CCC(=O)NC6=O)C7=O)C5)c4)cnc23)CC1` (stereo partly drawn) [GS-404, 2-(2,6-Dioxopiperidin-3-yl)-5-((3-(trans-3-(4-(5-(4-methylpiperazin-1-yl)quinoxalin-2-yl)-1H-pyrazol-1-yl)cyclobutyl)propyl)amino)isoindoline-1,3-dione], the IC50 is 10 to 100 nM in test [1] (setting [3]), < 10 nM in test [1] (setting [4]), 100 to 1000 nM in test [2] (setting [5]) and < 10 nM in test [2] (setting [6]).

For the origin of these results see patent US20240050428A1 (Cullgen (Shanghai), Inc., priority 2020, published 2024).
